Numbers after ± are expanded uncertainties.
Experiments:
[1] = Liquid; for mass density: 293.15 K, 101.33 kPa, Vibrating tube method; for Normal boiling temperature: mercury-in-glass thermometers
[2] = refractive index (Na D-line) (dimensionless); conditions: 293.15 K; 101.33 kPa; Liquid; Standard Abbe refractometry

SMILES	mass density [1] [kg/m3]	Normal boiling temperature [1] [°C]	refractive index [2]
CN(C)C=O [dimethylformamide]	942.6 ± 0.3	153.06 ± 0.2	1.4328 ± 0.0007
CCC(C)CO (centres undefined) [2-methyl-1-butanol]	817.6 ± 0.2	128.12 ± 0.2	1.4096 ± 0.0007
CCC(C)COC(C)=O (centres undefined) [2-methylbutyl ethanoate]	873.5 ± 0.3	138.23 ± 0.2	1.4034 ± 0.0007
